Results from US9717737B2, “Vacuolin-1 as an inhibitor of autophagy and endosomal trafficking and the use thereof for inhibiting tumor progression” (The University of Hong Kong, priority 2014, dated 2017).

Test system: HeLa cells
Assay: GPN induced lysosomal Ca2+ release in Fura-2 loaded cells
Assay type: cell-based
Details: 1 μM pretreatment 5 hours, GPN 200 μM
Experimental: Intracellular Ca^2+ measurement—Cells were cultured in 24-well plates at the density of 7×10^4 cells/well in regular medium overnight and were labeled with 4 μM Fura-2 AM (Invitrogen) in regular HMSS at room temperature for 30 min. The cells were then washed with calcium-free HMSS containing 2 mM EGTA three times and incubated in the presence or absence of vacuolin-1 at room temperature for another 10 min. Cells were put on the stage of an Olympus inverted epifluorescence microscope and visualized using a 20× objective. Fluorescence images were obtained by alternate excitation at 340 nm and 380 nm with emission set at 510 nm. Images were collected by a CCD camera every 3 or 6 seconds and analyzed by Cell R imaging software.
Since lysosome is also a major intracellular Ca^2+ pool, and Ca^2+ and protons are tightly coupled in lysosomes (Morgan et al., 2011), it was also assessed whether vacuolin-1 treatment affects the lysosomal Ca^2+ content. Treatment of cells with glycyl-1-phenylalanine 2-naphthylamide (GPN) selectively disrupts the lysosomal membrane (Jadot et al., 2001), thereby releasing the lysosomal Ca^2+ (Srinivas et al., 2002).

`Ic1cccc(/C=N/Nc2nc(N3CCOCC3)nc(N(c3ccccc3)c3ccccc3)n2)c1` [vacuolin-1] was tested. Which “GPN induced lysosomal Ca2+ release” value did it give?
The value was “significantly lowered”.
